Reference: patent US8461378B2, “Purification of fluoroalkanesulfonate salts” (E.I. du Pont de Nemours and Company, priority 2010, dated 2013)

Test: Solubility of TFESK in water and in aqueous K2SO3 solution
Assay type: physicochemical
From the text: Therefore, TFESK was selectively crystallized from sulfite solutions.

## O=S(=O)([O-])C(F)(F)C(F)F.[K+] [TFESK, Potassium 1,1,2,2-tetrafluoroethanesulfonate]
2M K2SO3 solution
  solubility in 2M K2SO3 solution: 1-2 % by weight
Water at 0° C.
  solubility in water: 25 % by weight
